{
  "source": "paper PMC5384220",
  "about": "(Nature Communications, 2017)",
  "key": {"[1]": {"target": "T1, FLAG-KDM4E (Homo sapiens, UniProt B2RXH2)", "T1 construct": "expressed in transfected cells; host or cells: U2OS", "T1 sequence (B2RXH2 1-506)": "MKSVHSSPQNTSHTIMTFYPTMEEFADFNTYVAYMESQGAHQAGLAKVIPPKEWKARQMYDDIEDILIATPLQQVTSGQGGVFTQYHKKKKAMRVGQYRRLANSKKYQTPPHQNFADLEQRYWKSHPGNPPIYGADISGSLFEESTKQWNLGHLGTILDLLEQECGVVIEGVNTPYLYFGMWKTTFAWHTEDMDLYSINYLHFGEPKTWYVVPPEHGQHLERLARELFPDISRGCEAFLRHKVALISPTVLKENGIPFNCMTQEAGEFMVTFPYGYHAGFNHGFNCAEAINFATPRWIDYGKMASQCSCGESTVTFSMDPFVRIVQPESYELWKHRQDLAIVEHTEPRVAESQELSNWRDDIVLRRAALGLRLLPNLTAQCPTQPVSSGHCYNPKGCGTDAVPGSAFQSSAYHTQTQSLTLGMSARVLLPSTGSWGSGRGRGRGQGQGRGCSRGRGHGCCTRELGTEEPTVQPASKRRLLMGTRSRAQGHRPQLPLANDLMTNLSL", "assay": "CETSA, FLAG-KDM4E in U2OS cells", "type": "cell-based", "settings": "0.5 µM", "procedure": "For CETSA melting curve experiments, 80% confluent U2OS cells in a 75 cm^2 flask were transfected with a plasmid encoding full-length Flag-tagged KDM4A1–1,064 (ref. [15]) or KDM4E1–506 (ref. [20]) using Lipofectamine 2000 (Thermo Scientific) and incubated for 4 h. The cells were washed with PBS buffer and media replaced with fresh DMEM with 10% FBS, supplemented with cyclic peptides in DMSO (0.1% DMSO final). Cell dosing was carried out for 20 h at 37 °C. Control cells were dosed only with DMSO. The cells were trypsinized and washed thrice with PBS, by centrifugation (300 g, 3 min, 4 °C). Cells were re-suspended in PBS supplemented with Complete Protease inhibitor cocktail (Sigma) and divided into 8–10 aliquots (100 μl) containing equal cell numbers in PCR tubes. For ITDRF CETSA experiments, approximately 6 × 10^6 cells were seeded evenly into nine 25 cm^2 flask and adhered before transfection. After 4 h of incubation, the cells were washed with PBS buffer and the media replaced with fresh DMEM with 10% FBS supplemented with cyclic peptides at a final concentration between 0 and 4,000 nM (0.1% DMSO final). Cells were trypsinized and washed thrice with PBS using centrifugation (300 g, 3 min, 4 °C). Cells were re-suspended in PBS supplemented with protease inhibitor cocktail (Sigma), aliquots (100 μl) containing equal cell numbers in PCR tubes were prepared. […] For ITDRF, tubes were incubated at approximately the Tm of the proteins of interest as determined by CETSA melting curve experiments, for example, 55 °C (Tm for actin) for 3 min, followed by room temperature for 3 min. […]\nThe samples (supernatant) were run on SDS–PAGE (NuPage Novex Bis-Tris 4–12% polyacrylamide gels with NuPAGE MES SDS running buffer (Thermo Scientific)) and transferred onto nitrocellulose membranes using either the iBlot blotting system. FLAG-KDM4A levels were determined by immunoblotting using a monoclonal mouse anti-FLAG primary antibody (F1804, Sigma), at a dilution of 1: 1,000 in PBS-T buffer containing Seablock Reagent Salmon Plasma (2% v/v, Calbiochem). […]"}, "[2]": {"system": "actin", "settings": "U2OS cells, 0.5 μM; same for treated and untreated cells", "procedure": "For CETSA melting curve experiments, 80% confluent U2OS cells in a 75 cm^2 flask were transfected with a plasmid encoding full-length Flag-tagged KDM4A1–1,064 (ref. [15]) or KDM4E1–506 (ref. [20]) using Lipofectamine 2000 (Thermo Scientific) and incubated for 4 h. The cells were washed with PBS buffer and media replaced with fresh DMEM with 10% FBS, supplemented with cyclic peptides in DMSO (0.1% DMSO final). Cell dosing was carried out for 20 h at 37 °C. Control cells were dosed only with DMSO. The cells were trypsinized and washed thrice with PBS, by centrifugation (300 g, 3 min, 4 °C). Cells were re-suspended in PBS supplemented with Complete Protease inhibitor cocktail (Sigma) and divided into 8–10 aliquots (100 μl) containing equal cell numbers in PCR tubes. […]\nThe samples (supernatant) were run on SDS–PAGE (NuPage Novex Bis-Tris 4–12% polyacrylamide gels with NuPAGE MES SDS running buffer (Thermo Scientific)) and transferred onto nitrocellulose membranes using either the iBlot blotting system. FLAG-KDM4A levels were determined by immunoblotting using a monoclonal mouse anti-FLAG primary antibody (F1804, Sigma), at a dilution of 1: 1,000 in PBS-T buffer containing Seablock Reagent Salmon Plasma (2% v/v, Calbiochem). […] Western blotting band intensities were quantified using Image Studio Ver. […]"}, "[3]": {"target": "T2, FLAG-KDM4A1-1,064 (Homo sapiens, UniProt O75164)", "T2 construct": "expressed in transfected cells; host or cells: U2OS", "T2 sequence (O75164 1-1064)": "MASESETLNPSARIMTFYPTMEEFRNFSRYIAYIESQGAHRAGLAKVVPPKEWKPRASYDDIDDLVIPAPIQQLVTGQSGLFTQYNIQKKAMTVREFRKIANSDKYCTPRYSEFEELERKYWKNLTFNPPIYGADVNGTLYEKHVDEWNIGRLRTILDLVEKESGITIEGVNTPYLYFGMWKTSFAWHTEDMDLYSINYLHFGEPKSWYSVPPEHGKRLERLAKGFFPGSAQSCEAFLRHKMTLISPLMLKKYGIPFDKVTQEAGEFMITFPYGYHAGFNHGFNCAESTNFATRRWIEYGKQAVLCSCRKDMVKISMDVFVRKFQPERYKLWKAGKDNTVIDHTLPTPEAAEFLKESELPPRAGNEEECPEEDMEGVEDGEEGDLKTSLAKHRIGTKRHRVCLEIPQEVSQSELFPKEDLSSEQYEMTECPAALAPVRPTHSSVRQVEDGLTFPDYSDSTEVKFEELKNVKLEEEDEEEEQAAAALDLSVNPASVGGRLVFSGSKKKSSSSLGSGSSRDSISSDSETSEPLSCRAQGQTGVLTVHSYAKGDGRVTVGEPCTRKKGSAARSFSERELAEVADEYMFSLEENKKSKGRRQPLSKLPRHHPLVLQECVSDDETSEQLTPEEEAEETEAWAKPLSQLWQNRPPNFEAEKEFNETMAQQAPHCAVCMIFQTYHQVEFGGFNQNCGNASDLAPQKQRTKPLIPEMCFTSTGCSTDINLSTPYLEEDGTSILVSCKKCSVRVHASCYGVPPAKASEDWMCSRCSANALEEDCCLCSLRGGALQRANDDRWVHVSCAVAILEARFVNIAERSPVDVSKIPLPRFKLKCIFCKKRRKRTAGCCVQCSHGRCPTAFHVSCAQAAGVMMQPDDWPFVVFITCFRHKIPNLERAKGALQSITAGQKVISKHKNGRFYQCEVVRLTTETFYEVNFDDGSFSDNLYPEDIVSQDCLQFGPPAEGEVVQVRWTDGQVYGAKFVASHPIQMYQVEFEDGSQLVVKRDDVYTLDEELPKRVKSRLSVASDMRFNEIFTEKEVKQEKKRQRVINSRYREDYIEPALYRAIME", "assay": "CETSA, FLAG-KDM4A in U2OS cells", "type": "cell-based", "settings": "0.5 μM, 20 h dosing, DMSO 47 °C", "protocol": "Control cells were dosed only with DMSO."}},
  "data": [
    {"sequence": "DYVYNTRSGWRWYZC [T13Z]", "values": [
      {"measurement": "CETSA stabilization / Tm shift of FLAG-KDM4E", "setting": "[1]", "result": "No significant changes in the Tm shift"},
      {"measurement": "CETSA actin Tm", "setting": "[2]", "result": 55, "unit": "°C"},
      {"measurement": "CETSA melting temperature (Tm) of FLAG-KDM4A", "setting": "[3]", "result": 59, "unit": "°C"}
    ]}
  ]
}
